Reference: patent publication US20150141351A1, “Solid Pharmaceutical Compositions” (AbbVie Deutschland GmbH & Co. KG, priority 2013, published 2015)

Test: drug substance degradation on hot melt extrusion
Assay type: physicochemical
Details: hot melt extrusion at a temperature of 165° C.
Protocol: Compound 1, Compound 2 and ritonavir were extruded using melt-extrusion. 31 g of copovidone, 3.5 g of vitamin E TPGS and 1.0 g of propylene glycol monolaurate were granulated for 2 minutes in a mill. After two hours, the mixture was blended with 5.09 g of ritonavir, 1.27 g of Compound 2, 7.64 g of Compound 1 and 0.5 g colloidal silica for 2 minutes in a blender and subsequently sieved over a 1.0 mm mesh sieve. The mixture was extruded on a Haake/Thermo Fisher extruder at 165° C. at a screw speed of 30 rpm. The extrudate thus prepared contained 15% Compound 1, 10% ritonavir, 2.5% Compound 2, 62% copovidone, 1% colloidal silica (areosil 200), 7% vitamin E TPGS, and 2% propylene glycol monolaurate.
The tablet was also tested for stability. […] The degradation of each drug substance after melt extrusion was within the specifications.

For `CC(C)c1nc(CN(C)C(=O)N[C@H](C(=O)N[C@@H](Cc2ccccc2)C[C@H](O)[C@H](Cc2ccccc2)NC(=O)OCc2cncs2)C(C)C)cs1` [ritonavir], the “ritonavir degradation when co-extruded with Compound 1 and Compound 2” value was “well within the acceptable levels”.
